This is an account of results in US9163015B2, “Pyrazolopyridine, pyrarolopyrazine, pyrazolopyrimidine, pyrazolothiophene and pyrazolothiazole compounds as MGLUR4 allosteric potentiators, compositions, and methods of treating neurological dysfunction” (Vanderbilt University, priority 2010, dated 2015).

The assay has as its target human mGluR4 (Homo sapiens (Human), UniProt Q14833). The experiment in a line: mGluR4 potentiation assay, CHO cells transfected with human mGluR4, Ca2+-sensitive fluorescent dye, EC20 agonist. The format is cell-based. The note with it: potentiation of mGluR4; table does not state human or rat receptor. The protocol: The disclosed compounds and compositions can be evaluated for their ability to act as a potentiator of metabotropic glutamate receptor activity, in particular mGluR4 activity, by any suitable known methodology known in the art. For example, Chinese Hamster Ovary (CHO) cells transfected with human mGluR4 or HEK cells co-transfected with rat mGluR4 and the G-protein regulated Inwardly Rectifying Potassium channel (GIRK) were plated in clear bottom assay plates for assay in a Hamamatsu FDSS Fluorometric Plate Reader. The cells were loaded with either a Ca2+-sensitive fluorescent dye or the thallium responsive dye and the plates were washed and placed into a suitable kinetic plate reader. For human mGluR4 assays, a fluorescence baseline was established for 3-5 seconds, the disclosed compounds were then added to the cells, and the response in cells was measured. Approximately two and a half minutes later, a concentration of mGluR4 orthosteric agonist (e.g. glutamate or L-AP4) eliciting approximately 20% (EC20) of the maximal agonist response was added to the cells, and the response was measured. Two minutes later, a concentration of mGluR4 agonist (e.g. glutamate or L-AP4) eliciting 80% (EC80) of the maximal agonist response was added to the cells, and the response was measured. For rat mGluR4/GIRK experiments, a baseline was established for approximately five seconds, disclosed compounds were added, and either an EC20 or EC80 concentration of agonist was added approximately two and one half minutes later.
The above described assay operated in two modes. In the first mode, a range of concentrations of the disclosed compounds are added to cells, followed by a single fixed concentration of agonist. If the compound acts as a potentiatior, an EC50 value for potentiation and a maximum extent of potentiation by the compound at this concentration of agonist is determined by non-linear curve fitting. If the compound acts as a noncompetitive antagonist, an IC50 value is determined by non-linear curve fitting. In the second mode, several fixed concentrations of the disclosed compounds are added to various wells on a plate, followed by a range in concentrations of agonist for each concentration of disclosed compound. The EC50 values for the agonist at each concentration of compound are determined by non-linear curve fitting. A decrease in the EC50 value of the agonist with increasing concentrations of the sample compound (a leftward shift of the agonist concentration-response curve) is an indication of the degree of mGluR4 potentiation at a given concentration of the sample compound. A decrease in the maximal response of the agonist with increasing concentrations of the sample compounds, with or without a rightward shift in agonist potency, is an indication of the degree of noncompetitive antagonism at mGluR4. The second mode also indicates whether the sample compounds also affect the maximum response to mGluR4 to agonists.

Chain of human mGluR4 (Q14833 33-912): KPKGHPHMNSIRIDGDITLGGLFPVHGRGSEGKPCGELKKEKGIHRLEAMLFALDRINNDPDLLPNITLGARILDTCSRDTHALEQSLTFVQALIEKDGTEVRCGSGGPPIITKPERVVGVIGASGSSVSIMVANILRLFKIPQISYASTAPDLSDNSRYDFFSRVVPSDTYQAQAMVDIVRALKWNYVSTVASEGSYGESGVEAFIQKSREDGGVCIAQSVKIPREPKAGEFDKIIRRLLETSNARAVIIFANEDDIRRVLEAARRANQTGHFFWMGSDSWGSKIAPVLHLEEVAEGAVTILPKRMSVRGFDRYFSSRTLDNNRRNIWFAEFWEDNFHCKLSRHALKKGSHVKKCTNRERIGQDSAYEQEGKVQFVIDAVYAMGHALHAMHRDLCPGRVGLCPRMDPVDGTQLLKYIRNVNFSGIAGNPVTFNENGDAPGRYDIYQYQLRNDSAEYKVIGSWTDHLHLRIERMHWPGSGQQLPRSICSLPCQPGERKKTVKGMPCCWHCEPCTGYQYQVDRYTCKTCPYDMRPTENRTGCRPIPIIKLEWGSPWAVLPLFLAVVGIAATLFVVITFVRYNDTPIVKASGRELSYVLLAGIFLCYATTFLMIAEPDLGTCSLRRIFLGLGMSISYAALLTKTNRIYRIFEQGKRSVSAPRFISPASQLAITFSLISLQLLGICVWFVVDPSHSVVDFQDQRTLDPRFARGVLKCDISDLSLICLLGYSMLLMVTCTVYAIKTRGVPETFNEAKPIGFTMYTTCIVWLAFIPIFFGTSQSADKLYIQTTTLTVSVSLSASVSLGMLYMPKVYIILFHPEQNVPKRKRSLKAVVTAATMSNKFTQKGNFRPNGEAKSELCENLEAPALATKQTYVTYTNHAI

The EC50 is the concentration needed to bring the measured effect to its halfway point. With `Fc1cc(Nc2n[nH]c3cccnc23)cc(C(F)(F)F)c1` [Example 62, N-(3-fluoro-5-(trifluoromethyl)phenyl)-1H-pyrazolo[4,3-b]pyridin-3-amine], the EC50 stood at 217 nM.

Turning to `Clc1cc(Nc2n[nH]c3cccnc23)cnc1N1CCCC1` [Example 31, N-(5-chloro-6-(pyrrolidin-l-yl)pyridin-3-yl)-1H-pyrazolo[4,3-b]pyridin-3-amine], the EC50 amounted to 1550 nM.

Consider `Cc1cc(NC(=O)Nc2n[nH]c3cccnc23)ccc1F` [Example 46, 1-(4-fluoro-3-methylphenyl)-3-(1H-pyrazolo[4,3-b]pyridin-3-yl)urea], for which the EC50 stood at 6840 nM.

`Cc1cc(C)cc(Nc2n[nH]c3cccnc23)c1` [Example 37, N-(3,5-dimethylphenyl)-1H-pyrazolo[4,3-b]pyridin-3-amine]: the EC50 is 177 nM.

For `Clc1cc(Nc2n[nH]c3cccnc23)ccc1Oc1ncccn1` [Example 24, N-(3-chloro-4-(pyrimidin-2-yloxy)phenyl)-1H-pyrazolo[4,3-b]pyridin-3-amine], the EC50 came to 116 nM.

With `Clc1cc(Nc2n[nH]c3cccnc23)cnc1Oc1ccccn1` [Example 96, N-(5-chloro-6-(pyridin-2-yloxy)pyridin-3-yl)-1H-pyrazolo[4,3-b]pyridin-3-amine], the EC50 came out at 3360 nM.

For the molecule `FC(F)(F)c1cccc(Nc2n[nH]c3cccnc23)c1` [Example 3, N-(3-(trifluoromethyl)phenyl)-1H-pyrazolo[4,3-b]pyridin-3-amine], the EC50 amounted to 145 nM.

`Fc1ncc(Cl)cc1Nc1n[nH]c2cccnc12` [Example 34, N-(5-chloro-2-fluoropyridin-3-yl)-1H-pyrazolo[4,3-b]pyridin-3-amine]: the EC50 is 597 nM.

As to `CC(C)C1CCC(Nc2n[nH]c3cccnc23)CC1` (centres unmarked) [Example 29, N-(4-isopropylcyclohexyl)-1H-pyrazolo[4,3-b]pyridin-3-amine], the EC50 came out at 5220 nM.

With `c1cnc2c(NCC3CCCCC3)n[nH]c2c1` [Example 49, N-(cyclohexylmethyl)-1H-pyrazolo[4,3-b]pyridin-3-amine], the EC50 is 5300 nM.

Consider `Fc1cc(Cl)cc(Nc2n[nH]c3cccnc23)c1` [Example 70, N-(3-chloro-5-fluorophenyl)-1H-pyrazolo[4,3-b]pyridin-3-amine], for which the EC50 is 32 nM.

In the case of `CN1C(=O)COc2ccc(Nc3n[nH]c4cccnc34)cc21` [Example 55, 6-((1H-pyrazolo[4,3-b]pyridin-3-yl)amino)-4-methyl-2H-benzo[b][1,4]oxazin-3(4H)-one], the EC50 worked out at 8140 nM.

In the case of `Fc1cc(F)c(Nc2n[nH]c3cccnc23)cc1Cl` [Example 79, N-(5-chloro-2,4-difluorophenyl)-1H-pyrazolo[4,3-b]pyridin-3-amine], the EC50 was 342 nM.

On to `Cc1cccc(Nc2n[nH]c3cccnc23)c1` [Example 18, N-(m-tolyl)-1H-pyrazolo[4,3-b]pyridin-3-amine], for which the EC50 was found to be 51.4 nM.

Take `CCc1cccc(Nc2n[nH]c3cccnc23)c1` [Example 60, N-(3-ethylphenyl)-1H-pyrazolo[4,3-b]pyridin-3-amine]: the EC50 is 2580 nM.

`Fc1cncc(Nc2n[nH]c3cccnc23)c1` [Example 4, N-(5-fluoropyridin-3-yl)-1H-pyrazolo[4,3-b]pyridin-3-amine]: the EC50 came to 9180 nM.

Regarding `Oc1ccc(Nc2n[nH]c3cccnc23)cc1F` [Example 73, 4-((1H-pyrazolo[4,3-b]pyridin-3-yl)amino)-2-fluorophenol], the EC50 is 349 nM.

For the molecule `Clc1cccc(Nc2n[nH]c3cccnc23)c1` [Example 1, N-(3-chlorophenyl)-1H-pyrazolo[4,3-b]pyridin-3-amine], the EC50 was determined as 138 nM.

`CN1C(=O)N(c2ccc(Nc3n[nH]c4cccnc34)cc2Cl)C(=O)C1C(C)(C)C` (centres unmarked) [Example 35, 3-(4-((1H-pyrazolo[4,3-b]pyridin-3-yl)amino)-2-chlorophenyl)-5-(tert-butyl)-1-methylimidazolidine-2,4-dione]: the EC50 worked out at 753 nM.

For the molecule `Fc1ccc2[nH]nc(Nc3ccc(F)c(Cl)c3)c2n1` [Example 95, N-(3-chloro-4-fluorophenyl)-5-fluoro-1H-pyrazolo[4,3-b]pyridin-3-amine], the EC50 was 312 nM.

Regarding `Fc1ccc(CNc2n[nH]c3cccnc23)cc1Cl` [Example 51, N-(3-chloro-4-fluorobenzyl)-1H-pyrazolo[4,3-b]pyridin-3-amine], the EC50 turned out to be 7080 nM.

As to `Oc1ccc(Nc2n[nH]c3cccnc23)cc1Cl` [Example 36, 4-((1H-pyrazolo[4,3-b]pyridin-3-yl)amino)-2-chlorophenol], the EC50 was found to be 217 nM.

Regarding `Fc1c(Cl)cccc1Nc1n[nH]c2cccnc12` [Example 17, N-(3-chloro-2-fluorophenyl)-1H-pyrazolo[4,3-b]pyridin-3-amine], the EC50 is 623 nM.

On to `O=C(c1ccccc1)c1ccc(Nc2n[nH]c3cccnc23)cc1Cl` [Example 64, (4-((1H-pyrazolo[4,3-b]pyridin-3-yl)amino)-2-chlorophenyl)(phenyl)methanone], for which the EC50 was determined as 351 nM.

For the molecule `CN(c1cccc(Cl)c1)c1n[nH]c2cccnc12` [Example 86, N-(3-chlorophenyl)-N-methyl-1H-pyrazolo[4,3-b]pyridin-3-amine], the EC50 came out at 8010 nM.

Take `FC(F)Oc1cccc(Nc2n[nH]c3cccnc23)c1` [Example 9, N-(3-(difluoromethoxy)phenyl)-1H-pyrazolo[4,3-b]pyridin-3-amine]: the EC50 was 254 nM.

Regarding `Fc1cc(Nc2n[nH]c3cccnc23)ccc1Oc1ncccn1` [Example 74, N-(3-fluoro-4-(pyrimidin-2-yloxy)phenyl)-1H-pyrazolo[4,3-b]pyridin-3-amine], the EC50 is 2760 nM.

Turning to `Cc1ccc(NC(=O)Nc2n[nH]c3cccnc23)cc1C` [Example 44, 1-(3,4-dimethylphenyl)-3-(1H-pyrazolo[4,3-b]pyridin-3-yl)urea], the EC50 was found to be 12800 nM.

Consider `Cc1ccc(F)c(Nc2n[nH]c3cccnc23)c1` [Example 84, N-(2-fluoro-5-methylphenyl)-1H-pyrazolo[4,3-b]pyridin-3-amine], for which the EC50 was found to be 314 nM.

For `FC(F)(F)c1cc(Nc2n[nH]c3cccnc23)cc(C(F)(F)F)c1` [Example 67, N-(3,5-bis(trifluoromethyl)phenyl)-1H-pyrazolo[4,3-b]pyridin-3-amine], the EC50 came to 3050 nM.

`CC1Oc2ccc(Nc3n[nH]c4cccnc34)cc2N(C)C1=O` (centres unmarked) [Example 63, 6-((1H-pyrazolo[4,3-b]pyridin-3-yl)amino)-2,4-dimethyl-2H-benzo[b][1,4]oxazin-3(4H)-one]: the EC50 was found to be 8340 nM.

Turning to `Clc1cncc(Nc2n[nH]c3cccnc23)n1` [Example 32, N-(6-chloropyrazin-2-yl)-1H-pyrazolo[4,3-b]pyridin-3-amine], the EC50 stood at 9990 nM.

On to `Clc1ccc(Oc2ccc(Nc3n[nH]c4cccnc34)cc2Cl)cc1` [Example 81, N-(3-chloro-4-(4-chlorophenoxy)phenyl)-1H-pyrazolo[4,3-b]pyridin-3-amine], for which the EC50 amounted to 1540 nM.

Regarding `Cn1ccc2ccc(Nc3n[nH]c4cccnc34)cc21` [Example 53, N-(1-methyl-1H-indol-6-yl)-1H-pyrazolo[4,3-b]pyridin-3-amine], the EC50 turned out to be 3590 nM.

As to `Clc1cc(Nc2n[nH]c3cccnc23)ccc1OCc1ccccc1` [Example 87, N-(4-(benzyloxy)-3-chlorophenyl)-1H-pyrazolo[4,3-b]pyridin-3-amine], the EC50 is 426 nM.
